Test results published in patent publication US8754220B2, “Quinolizidinone carboxamide M1 receptor positive allosteric modulators” (Merck Sharp & Dohme Corp., priority 2009, dated 2014).
pEC50: −log10 of the molar value.

molecular target: T1, acetylcholine muscarinic M1 receptor (CHOnfat/hM1 cells) (Homo sapiens, UniProt P11229); assay: FLIPR intracellular calcium assay for M1 positive allosteric modulator activity (acetylcholine EC20); format: cell-based; settings: not given
T1 construct: expressed in transfected cells; host or cells: CHOnfat (CHO cells; selected with Geneticin)
T1 sequence (P11229 1-460): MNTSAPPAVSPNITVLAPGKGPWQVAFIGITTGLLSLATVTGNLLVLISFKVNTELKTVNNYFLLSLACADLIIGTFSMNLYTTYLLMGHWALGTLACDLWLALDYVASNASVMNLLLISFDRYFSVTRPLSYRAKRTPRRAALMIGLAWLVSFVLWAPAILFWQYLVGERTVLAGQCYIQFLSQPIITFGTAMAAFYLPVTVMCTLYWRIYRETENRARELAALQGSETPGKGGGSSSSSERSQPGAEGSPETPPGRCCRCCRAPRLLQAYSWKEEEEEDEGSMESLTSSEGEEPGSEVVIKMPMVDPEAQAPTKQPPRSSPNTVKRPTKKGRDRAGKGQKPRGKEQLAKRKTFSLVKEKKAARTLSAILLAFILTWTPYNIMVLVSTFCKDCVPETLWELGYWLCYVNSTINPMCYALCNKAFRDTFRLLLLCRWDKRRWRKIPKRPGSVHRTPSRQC
Experimental: The assay studies the effect of one or several concentrations of test compounds on basal or acetylcholine-stimulated Ca^2+ levels using FLIPR.
Compounds are prepared and subjected to a preincubation period of 4 min. Thereafter, a single EC20 concentration of acetylcholine is added to each well (3 nM final). The intracellular Ca^2+ level of each sample is measured and compared to an acetylcholine control to determine any modulatory activity.
Cells: CHOnfat/hM1, hM2, hM3 or hM4 cells are plated 24 hr before the assay at a density of 18,000 cells/well (100 μL) in a 384 well plate. CHOnfat/hM1 and CHOnfat/hM3 Growth Medium: 90% DMEM (Hi Glucose); 10% HI FBS; 2 mM L-glutamine; 0.1 mM NEAA; Pen-Strep; and 1 mg/ml Geneticin, are added. For M2Gqi5CHOnfat and M4Gqi5CHOnfat cells, an additional 600 μg/ml hygromycin is added.
Equipment: 384 well plate, 120 μL addition plate; 96-well Whatman 2 ml Uniplate Incubator, 37° C., 5% CO2; Skatron EMBLA-384 Plate Washer; Multimek Pipetting System; Genesis Freedom 200 System; Mosquito System; Temo Nanoliter Pipetting System; and FLIPR^384 Fluorometric Imaging Plate Reader System are used.
Buffers. Assay Buffer: Hanks Balanced Salt Solution, with 20 mM Hepes, 2.5 mM Probenecid (Sigma P-8761) first dissolved in 1 N NaOH, 1% Bovine Serum Albumin (Sigma A-9647). Dye Loading Buffer: Assay Buffer plus 1% Fetal Bovine Serum and Fluo-4AM/Pluronic Acid Mixture. 2 mM Fluo-4AM ester stock in DMSO (Molecular Probes F-14202) Concentration of 2 μM in buffer for a final concentration of 1 μM in Assay. 20% Pluronic Acid Solution stock, with concentration of 0.04% in Buffer, 0.02% in Assay.
65 μL of 2 mM Fluo-4AM are mixed with 130 μL of 20% Pluronic Acid. The resulting solution and 650 μL FBS is added to the assay buffer for a total volume of 65 mL. Positive Controls: 4-Br-A23187: 10 mM in DMSO; final concentration 10 μM. Acetylcholine: 10 mM in water, working stock at both 20 μM and 30 μM in assay buffer, final concentration of 10 μM. This is used to check the maximum stimulation of the CHOK1/hM1 cells. 20 μM (2×) acetylcholine is added in the preincubation part of the assay, and the 30 μM (3×) stock is added in the second part. (EC20) Acetylcholine: 10 mM in water, working stock of 9 nM (3×), and final concentration in assay is 3 nM. This is used after the preincubation with test compounds. Addition of the EC20 Acetylcholine to each well with a test compound will ascertain any modulator activity. 24 wells contain 3 nM Acetylcholine alone as a control.
Screening Plate: Compounds are titrated in 96-well plates (columns 2-11), 100% DMSO, started at a concentration of 15 mM (150× stock concentration), and 3-fold serial dilutions using Genesis Freedom200 System. Four 96-well plates are combined into a 384-well plate using Mosquito Nanoliter Pipetting System by transferring 1 μl of serial diluted compounds to each well, and 1 mM acetylcholine (100× stock concentration) were added as a control. Using Temo, 49 μl assay buffer is added to each well of the 384-well plate right before assay.
In a 96-well Whatman 2 ml Uniplate, 9 nM Acetylcholine (3×) is pipetted into wells corresponding to the screening compounds, and into control wells. The 30 μM acetylcholine control (3×) is added into control wells, and the 3× agonist plate is transferred into a 384 well plate.
Cells are washed three times with 100 μL of buffer, leaving 30 μL of buffer in each well. Using Multimek, 30 μL of Dye Loading Buffer is added into each well and incubated at 37° C., 5% CO2 for up to one hr.
After 60 min, the cells are washed three times with 100 μL of buffer, leaving 30 μL of buffer in each well. The cell plate, screening plate, and agonist addition plates are placed on the platform in the FLIPR and the door closed. A signal test to check background fluorescence and basal fluorescence signal is performed. Laser intensity is adjusted if necessary. […]

| SMILES | pEC50 |
| --- | --- |
| N#CC1(c2ccccn2)CCN(Cc2cc(C(=O)N[C@H]3CCOC[C@@H]3O)c(=O)n3ccccc23)CC1 (racemic) [Example 7, rac-1-[(4-Cyano-4-pyridin-2-ylpiperidin-1yl)methyl]-N-[(3R,4S)-3-hydroxytetrahydro-2H-pyran-4-yl]-4-oxo-4H-quinolizine-3-carboxamide] | 7.60 |
| C[C@]1(O)CCCC[C@@H]1NC(=O)c1cc(CN2CCC(C#N)(c3ccccn3)CC2)c2ccccn2c1=O (racemic) [Example 14, rac-1-[(4-Cyano-4-pyridin-2-ylpiperidin-1-yl)methyl]-N-[(1R,2R)-2-hydroxy-2-methylcyclohexyl]-4-oxo-4H-quinolizine-3-carboxamide] | 7.03 |
| N#CC1(c2ccccc2)CCN(Cc2cc(C(=O)N[C@@H]3CCOC[C@H]3O)c(=O)n3ccccc23)CC1 [Example 9, 1-[(4-Cyano-4-phenylpiperidin-1-yl)methyl]-N-[(3S,4R)-3-hydroxytetrahydro-2H-pyran-4-yl]-4-oxo-4H-quinolizine-3-carboxamide] | 6.28 |
| N#CC1(c2ncc(Br)cc2Br)CCN(Cc2cc(C(=O)N[C@H]3CCOC[C@@H]3O)c(=O)n3ccccc23)CC1 [Example 10, 1-{[4-Cyano-4-(3,5-dibromopyridin-2-yl)piperidin-1-yl]methyl}-N-[(3R,4S)-3-hydroxytetrahydro-2H-pyran-4-yl]-4-oxo-4H-quinolizine-3-carboxamide] | 7.85 |
| N#CC1(c2ccccc2)CCN(Cc2cc(C(=O)N[C@H]3COCC[C@@H]3O)c(=O)n3ccccc23)CC1 [Example 11, 1-[(4-Cyano-4-phenylpiperidin-1-yl)methyl]-N-[(3S,4S)-4-hydroxytetrahydro-2H-pyran-3-yl]-4-oxo-4H-quinolizine-3-carboxamide] | 6.25 |
| N#CC1(c2ccccc2Br)CCN(Cc2cc(C(=O)N[C@H]3CCCC[C@@H]3O)c(=O)n3ccccc23)CC1 [Example 12] | 7.62 |

same assay, conditions: CHOnfat/hM1 cells, 4 min preincubation, then EC20 acetylcholine (3 nM final), FLIPR Ca2+; read-out: IP Value (inflection point)

| SMILES | pEC50 |
| --- | --- |
| N#CC1(c2ccccn2)CCN(Cc2cc(C(=O)N[C@H]3COCC[C@@H]3O)c(=O)n3ccccc23)CC1 (racemic) [Example 8, rac-1-[(4-Cyano-4-pyridin-2-ylpiperidin-1yl)methyl]-N-[(3R,4R)-4-hydroxytetrahydro-2H-pyran-3-yl]-4-oxo-4H-quinolizine-3-carboxamide] | 6.66 |
| N#CC1(c2ccccn2)CCN(Cc2cc(C(=O)N[C@H]3CCCC[C@@H]3Br)c(=O)n3ccccc23)CC1 (racemic) [Example 13, rac-N-[(1R,2R)-2-Bromocyclohexyl)-1-[(4-cyano-4-pyridin-2-ylpiperidin-1-yl)methyl]-4-oxo-4H-quinolizine-3-carboxamide] | 6.32 |
| CS[C@H]1CCCC[C@@H]1NC(=O)c1cc(CN2CCC(C#N)(c3ccccn3)CC2)c2ccccn2c1=O (racemic) [Example 16, rac-1-[(4-Cyano-4-pyridin-2-ylpiperidin-1-yl)methyl]-N-[(1R,2R)-2-(methylthio)cyclohexyl]-4-oxo-4H-quinolizine-3-carboxamide] | 6.74 |
| C[S@@+]([O-])[C@H]1CCCC[C@@H]1NC(=O)c1cc(CN2CCC(C#N)(c3ccccn3)CC2)c2ccccn2c1=O (racemic) [Example 17, rac-1-[(4-Cyano-4-pyridin-2-ylpiperidin-1-yl)methyl]-N-{(1R,2R)-2-[(S)-methylsulfinyl]cyclohexyl}-4-oxo-4H-quinolizine-3-carboxamide] | 5.59 |
| CS(=O)(=O)[C@H]1CCCC[C@@H]1NC(=O)c1cc(CN2CCC(C#N)(c3ccccn3)CC2)c2ccccn2c1=O (racemic) [Example 18, rac-1-[(4-Cyano-4-pyridin-2-ylpiperidin-1-yl)methyl]-N-[(1R,2R)-2-(methylsulfonyl)cyclohexyl]-4-oxo-4H-quinolizine-3-carboxamide] | 6.10 |
| C[C@H]1COCC[C@@H]1NC(=O)c1cc(CN2CCC(C#N)(c3ccccn3)CC2)c2ccccn2c1=O (racemic) [Example 21, rac-1-[(4-Cyano-4-pyridin-2-ylpiperidin-1-yl)methyl]-N-[(3R,4S)-3-methyltetrahydro-2H-pyran-4-yl]-4-oxo-4H-quinolizine-3-carboxamide] | 6.42 |
| N#CC1(c2ccccn2)CCN(Cc2cc(C(=O)NC3CCOCC3)c(=O)n3ccccc23)CC1 [Example 1, 1-[(4-Cyano-4-pyridin-2-ylpiperidin-1-yl)methyl]-4-oxo-4H—N-(tetrahydro-2H-pyran-4-yl)-4H-quinolizine-3-carboxamide] | 6.47 |
| O=C(N[C@H]1CCCC[C@@H]1O)c1cc(Cc2ccc(Br)cn2)c2ccccn2c1=O [Example 2, 1-[(5-Bromopyridin-2-yl)methyl]-N-[(1S,2S)-2-hydroxycyclohexyl]-4-oxo-4H-quinolizine-3-carboxamide] | 6.98 |
| Cn1cc(-c2ccc(Cc3cc(C(=O)N[C@H]4CCCC[C@@H]4O)c(=O)n4ccccc34)nc2)cn1 [Example 3, N-[(1S,2S)-2-Hydroxycyclohexyl]-{-[5-(1-methyl-1H-pyrazol-4-yl)pyridine-2-yl]methyl}-4-oxo-4H-quinolizine-3-carboxamide] | 7.82 |
| O=C(N[C@H]1CCCC[C@@H]1O)c1cc(Cc2ccc(-n3cccn3)cn2)c2ccccn2c1=O [Example 4, N-[(1S,2S)-2-Hydroxycyclohexyl]-4-oxo-1-{[5-(1H-pyrazol-1-yl)pyridine-2-yl]methyl}-4H-quinolizine-3-carboxamide] | 6.35 |
| O=C(N[C@H]1CCCC[C@@H]1O)c1cc(CN2CCN(c3ccc(C(F)F)nc3)CC2)c2ccccn2c1=O [Example 5, 1-({4-[6-(Difluoromethyl)pyridine-3-yl]piperazin-1-yl}methyl)-N-[(1S,2S)-2-hydroxycyclohexyl]-4-oxo-4H-quinolizine-3-carboxamide] | 6.68 |
| Cn1cc(N2CCN(Cc3cc(C(=O)N[C@H]4CCCC[C@@H]4O)c(=O)n4ccccc34)CC2=O)cn1 [Example 6, N-[(1S,2S)-2-Hydroxycyclohexyl]-1-{[4-(1-methyl-1H-pyrazol-4-yl)-3-oxopiperazin-1-yl]methyl}-4-oxo-4H-quinolizine-3-carboxylate] | 6.77 |
| N#CC1(c2ccccn2)CCN(Cc2cc(C(=O)N[C@@H]3CCCCC3=O)c(=O)n3ccccc23)CC1 [Example 15, 1-[(4-Cyano-4-pyridin-2-ylpiperidin-1-yl)methyl]-4-oxo-N-[(1R)-2-oxocyclohexyl]-4H-quinolizine-3-carboxamide] | 6.18 |
| N#CC1(c2ccccn2)CCN(Cc2cc(C(=O)NC3CCCNC3)c(=O)n3ccccc23)CC1 (centres unmarked) [Example 19, 1-[(4-Cyano-4-pyridin-2-ylpiperidin-1-yl)methyl]-4-oxo-N-piperidin-3-yl-4H-quinolizine-3-carboxamide] | 5.74 |
